{
  "source": "ChEMBL document CHEMBL5543130",
  "about": "“Design, Synthesis, and In Vivo Evaluation of Isosteviol Derivatives as New SIRT3 Activators with Highly Potent Cardioprotective Effects” (J Med Chem, 2024)",
  "key": {"[1]": {"assay": "Water solubility of the compound measured for 24 hrs by HPLC analysis", "type": "physicochemical"}, "[2]": {"assay": "Toxicity in Tg(cmlc2: GFP) Zebrafish assessed as mortality at 450 uM measured at 72 hrs post fertilization", "design": "species or system Danio rerio", "details": "in vivo"}, "Mus musculus [3]": {"system": "Mus musculus", "assay": "Cardioprotective activity against doxorubicin-induced C57BL/6 mouse cardiomyopathy model assessed as increase in heart weight to tibia length ratio at 2.5 mg/kg, ip administered for 7 days by Echocardiography analysis", "type": "functional", "details": "time 7 day"}, "Mus musculus [4]": {"system": "Mus musculus", "assay": "Cardioprotective activity against doxorubicin-induced C57BL/6 mouse cardiomyopathy model assessed as increase in ejection fraction at 2.5 mg/kg, ip administered for 7 days by Echocardiography analysis", "type": "functional", "details": "time 7 day"}, "Mus musculus [5]": {"system": "Mus musculus", "assay": "Cardioprotective activity against doxorubicin-induced C57BL/6 mouse cardiomyopathy model assessed as increase in fractional shortening at 2.5 mg/kg, ip administered for 7 days by Echocardiography analysis", "type": "functional", "details": "time 7 day"}, "Mus musculus [6]": {"system": "Mus musculus", "assay": "Cardioprotective activity against doxorubicin-induced C57BL/6 mouse cardiomyopathy model assessed as increase in cardiac output at 2.5 mg/kg, ip administered for 7 days by Echocardiography analysis", "type": "functional", "details": "time 7 day"}, "Danio rerio [7]": {"system": "Danio rerio", "assay": "Cardioprotective activity against doxorubicin-induced Zebrafish cardiomyopathy model assessed as survival rate at 40 uM fertilized for 24 hrs followed by compound administration for 72 hrs and measured at 96 hrs post fertilization by inverted fluorescence microscopic analysis", "type": "functional"}, "Danio rerio [8]": {"system": "Danio rerio", "assay": "Cardioprotective activity against doxorubicin-induced Zebrafish cardiomyopathy model assessed as survival rate at 60 uM fertilized for 24 hrs followed by compound administration for 72 hrs and measured at 96 hrs post fertilization by inverted fluorescence microscopic analysis", "type": "functional"}, "Danio rerio [9]": {"system": "Danio rerio", "assay": "Cardioprotective activity against doxorubicin-induced Tg(cmlc2: GFP) Zebrafish assessed as […] at 60 uM measured at 72 hrs post fertilization", "type": "functional, organism-based"}, "Danio rerio [10]": {"organism": "Danio rerio", "assay": "Cardioprotective activity against doxorubicin-induced Tg(cmlc2: GFP) Zebrafish assessed as restoration of normal heart structure at 60 uM measured at 72 hrs post fertilization", "type": "functional, organism-based"}},
  "note": "The source made the active and inactive calls. The calls are words filed in the database; no cut-off is given here.",
  "data": [
    {"compound": "C[C@@]12CC[C@@H]3[C@@](CC[C@H]4[C@@]3(C)CCC[C@@]4(C)C(=O)N3CCN(C(=O)c4ccccc4C(=O)[O-])CC3)(CC1=O)C2.[Na+]", "values": [
      {"measurement": "solubility at 24 h", "setting": "[1]", "value": 54, "unit": "mg/mL"},
      {"measurement": "Activity", "setting": "[2]", "value": "Non-Toxic"},
      {"measurement": "Ratio", "setting": "Mus musculus [3]", "value": 6.3, "unit": "mg/mm"},
      {"measurement": "Activity", "setting": "Mus musculus [4]", "value": 59.8, "unit": "%"},
      {"measurement": "Activity", "setting": "Mus musculus [5]", "value": 31.3, "unit": "%"},
      {"measurement": "Activity", "setting": "Mus musculus [6]", "value": 10, "unit": "%"}
    ]},
    {"compound": "C[C@@H]1CC(=O)NN=C1c1ccc(NN=C(C#N)C#N)cc1", "note": "[LEVOSIMENDAN]", "values": [
      {"measurement": "survival at 40 µM", "setting": "Danio rerio [7]", "value": 75, "unit": "%"},
      {"measurement": "survival at 60 µM", "setting": "Danio rerio [8]", "value": 84, "unit": "%"},
      {"measurement": "Activity", "setting": "Danio rerio [9]", "value": "Active"},
      {"measurement": "Activity", "setting": "Danio rerio [10]", "value": "Active"}
    ]}
  ]
}
